Data published in US9889182B2, “Assisted enzyme replacement therapy” (The Regents of the University of California, priority 2009, dated 2018).
Entries after “also recorded” stand apart in the source; their conditions may differ.

What was measured:
Wild-type CHO cells [1] = assay: Live-cell uptake of fluorescent guanidinoneomycin conjugate (streptavidin-Alexa-488), microscopy; assay type: cell-based, Chinese hamster; conditions: heparin 50 μg/ml
Procedure: Microscopy—Cells were cultured on Lab-Tek chambered coverglass slides (Electron Microscopy Sciences) in F12 medium. After washing with PBS, cells were incubated for 1 h in 1 ml of 60 nM guanidinoneomycin coupled to streptavidin-Alexa-488 (Molecular Probes) at 37° C. Guanidinoneomycin-A488 was prepared by incubating 1 μM guanidinoneomycinbiotin with 6 μg of streptavidin-Alexa-488 in 1 ml of medium. Hoechst 33342 (2 μg/ml; Molecular Probes) was added to cells for the last 20 min of incubation. Cells were washed three times with F12 medium before live cell imaging. Microscopic images were acquired on an Olympus IX70 DeltaVision Spectris Image Deconvolution system, equipped with a temperature and atmospherically controlled stage. Images were deconvolved (10 cycles) using SoftWoRx Explorer Suite software.

Wild-type CHO cells [2] = assay: Uptake of streptavidin-PE-Cy5 conjugates by flow cytometry, wild-type CHO cells; assay type: cell-based, Chinese hamster
Procedure: After thawing at room temperature, compounds were diluted into F12 medium to 1 μM. To this solution, streptavidin-PE-Cy5 (BD Biosciences) was added in a 1:1000 dilution to achieve a ratio of 1:3 of fluorophore to biotin. To ensure completion of the biotin-streptavidin reaction, the solution was gently mixed and allowed to incubate at room temperature, shielded from light for 30 min. Following this incubation, compounds were diluted to the desired concentration in growth medium. For experiments done at 4° C. solutions were incubated on ice for 30 min.
After washing with PBS, cells were incubated with the fluorescent-tagged guanidinoneomycin-, neomycin-, or Arg9-biotin for 1 h at 37° C. under an atmosphere of 5% CO2. Cells were washed with PBS, released with EDTA, and analyzed by flow cytometry.

WT CHO-K1 cells = assay: Competition of guanidinoneomycin construct uptake by model glycans; assay type: cell-based, Chinese hamster
Wild-type CHO cells [3] = assay: Saporin delivery, CellTiter-Blue viability, wild-type CHO cells; conditions: at concentrations up to 100 nM
Procedure: Saporin Delivery—A conjugate of saporin and biotinylated guanidinoneomycin was prepared by mixing streptavidinylated saporin (Advanced Targeting Systems) with biotinylated compound in 1:4 ratio. […] CellTiter-Blue (Promega) was added to the medium and cells were incubated for an additional 4 h to measure viability.

10T1/2 cells = assay: FACS cellular uptake of BODIPY conjugates in 10T1/2 cells; assay type: cell-based, mouse
Procedure: 10T1/2 cells, an adherent non-transformed mouse fibroblast cell line, and HeLa cells, a common human cancer cell line, were purchased from ATCC and used before their 20th passage. Both cell lines were cultured in Dulbecco's modified eagle medium containing 10% fetal bovine serum at 37° C. in an 8% CO2 environment. For each experiment, cells were seeded onto 4 cm tissue culture plates (Nunc) and allowed to grow overnight to ˜80% confluency.
Compounds 1-5 identified in Table 1, below (0.5-1 μM), were added to each dish and incubated at 37° C./8% CO2 for 0.5-1 hr. Cells were then washed once in PBS, trypsinized with 500 μl ATV solution (Gibco) for 3 minutes, pelleted in a fixed angle centrifuge for 5 minutes at 5,000×G, then brought up in 1 mL PBS. Each sample was quickly (within 5 minutes) analyzed on a FACS VantageSE cell sorter (Becton-Dickinson) using the 488 nm argon/krypton laser line and a 530 nm band pass emission filter. 2,000-10,000 cells were counted per sample.

[4] = system: FGF-2 binding to cell surface heparan sulfate; assay: Inhibition of biotinylated FGF-2 binding to wild-type CHO cells; parameters: species or system Chinese hamster
Procedure: (§1) Inhibition Experiments—Wild-type CHO cells were grown to confluence on 6-well tissue culture plates, harvested with 10 mM EDTA (37° C., 10 min), washed with phosphate-buffered saline (PBS), and incubated in suspension with biotinylated FGF-2 (10 ng/ml) (25) in F12 medium for 1 h at 4° C. in the presence of increasing concentrations of guanidinoneomycin (100 nM to 1.8 mM). The cells were then stained with streptavidin-phycoerythrin-Cy5 (BD Biosciences) for 20 min, washed three times with PBS, and analyzed by flow cytometry. Cells were also incubated in F12 medium containing 0.5 μM Arg9-BODIPY and increasing concentrations of guanidinoneomycin (1-300 μM) for 1 h at 37° C. and analyzed by flow cytometry.

Wild-type CHO cells [5] = assay: Inhibition of Arg9-BODIPY binding and uptake; assay type: cell-based, Chinese hamster; conditions: Arg9-BODIPY 0.5 μM, guanidinoneomycin 1-300 μM, 1 h, 37° C.
Procedure: as §1

MPS VII fibroblasts [6] = assay: Uptake of GUS enzymes by MPS VII fibroblasts (β-glucuronidase activity); assay type: cell-based, human
Procedure: GUS activity was measured by assaying the conversion of 4-methylumbelliferyl β-d-glucuronide (MUG; Sigma) into the fluorochrome 4-methylumbelliferone. The assay was performed in 96-well plates, using 100 μl of reaction buffer containing 50 mmol/L sodium acetate (pH 5.2), 10 mmol/L EDTA, 0.01% bovine serum albumin, 0.1% Triton X-100, […] of MUG, and enzyme. After 1 hour at 37° C., fluorescent product was measured by fluorimetry (excitation at 360 nm, emission at 460 nm) and quantified using a standard curve of 4-methylumbelliferone. One unit (U) of activity is defined as the liberation of […] of 4-methylumbelliferone per hour at pH 5.2, 37° C. α-1-iduronidase activity was measured in a similar way using 4-methylumbelliferyl α-1-iduronide (Glycosynth, Warrington, UK) as substrate. The assay was performed in 10 μl of 50 mmol/L sodium formate (pH 3) buffer containing 10 mmol/L NaCl, 0.1 mg/ml bovine serum albumin, 50 μmol/l substrate, and 2 μl of enzyme.
To test whether GNeo-bGus was taken up by GUS-deficient cells, enzyme activity was measured in MPR VII fibroblasts after 2-hour incubation with various concentrations of unmodified bGus and G-Neo-bGus (see FIG. 15a). Normal HFF, MPS VII, and MPS I fibroblasts were cultured in Earl's Minimal Essential Medium supplemented with 15% of fetal bovine serum and penicillin/streptomycin (Invitrogen). Approximately 8×10^4 cells in 0.4 ml of medium were seeded in each well of a 24-well plate. After 3 days, cells were incubated in fresh medium with and without 5 mmol/L of M6P or glucose 6-phosphate (G6P) (Sigma). The cells were incubated for 2 hours at 37° C., washed twice with PBS, treated with trypsin/EDTA, and then combined with complete medium to inhibit the trypsin. […] In some experiments, cells were treated 3 hours with recombinant heparin lyases I, II, and III (5 mU/ml) in serum-free medium, and uptake was measured as described above in medium containing heparinases. Enzyme activity in the cell extracts was measured in triplicate using 5 μg of total cell protein. […]

MPS VII fibroblasts [7] = assay: [35S]glycosaminoglycan turnover, label-chase, MPS VII fibroblasts; assay type: cell-based, human; conditions: enzyme 2 hours, chase 24 hours
Procedure: (§2) To test whether internalized GUS was functionally localized in lysosomes, a label-chase format was used in which cells were incubated with ^35S-labeled sulfate for 24 hours to radiolabel the sulfated glycosaminoglycans. The medium was changed, and after 24 hours, the amount of [^35S]glycosaminoglycans that remained associated with the cells was quantitated. Normal and MPS fibroblasts were incubated in DMEM/F12 medium supplemented with 10% dialyzed fetal bovine serum in order to increase the radiospecific activity of added ^35S4. Cells were seeded in a 12-well plate, and at confluence, 50 μCi of Na[^35S]O4 (PerkinElmer) was added in 1 ml of fresh medium. After 24 hours, the cells were rinsed twice with PBS, exposed to GUS or α-iduronidase for 2 hours, rinsed twice, and then chased for 24 hours in complete growth medium. The cells were harvested with trypsin, centrifuged (500 g, 5 minutes), and washed once. The sedimented cells were then resuspended in 100 μl of RIPA buffer (Sigma) and counted by liquid scintillation spectrometry using Scintillator Ultima Gold XR (PerkinElmer).

MPS I fibroblasts = assay: [35S]glycosaminoglycan turnover, label-chase, MPS I fibroblasts; assay type: cell-based, human; conditions: enzyme 2 hours, chase 24 hours
Procedure: as §2

heparin [Heparin (A)]
effect of heparin in incubation medium on uptake of guanidinoneomycin-streptavidin-Alexa-488 (Wild-type CHO cells [1]): completely abolished uptake | heparin concentration blocking uptake of fluorescent guanidinoneomycin conjugate (as low as) (Wild-type CHO cells [2]): ≥ 100 ng/mL | increase of sensitivity of dimeric over monomeric construct to inhibition (WT CHO-K1 cells): 3 fold | inhibition of uptake of monomeric guanidinoneomycin 1 (WT CHO-K1 cells; at the tested concentrations): showed inhibition

saporin
cell toxicity (Wild-type CHO cells [3]): No cell toxicity

NC[C@@H]1O[C@H](O[C@H]2[C@@H](O)[C@H](O[C@@H]3[C@@H](O)[C@H](N)C[C@H](N)[C@H]3O[C@H]3O[C@H](CN)[C@@H](O)[C@H](O)[C@H]3N)O[C@@H]2CO)[C@H](N)[C@@H](O)[C@@H]1O [neomycin, neomycin B, reference compound]
enhancement of cellular uptake upon guanidinylation (10T1/2 cells; relative to autofluorescence, BODIPY conjugates, FIG. 3 and Table 1): approximately 20 fold | inhibition of FGF-2 binding [4]: did not inhibit binding

N=C(N)NC[C@@H]1O[C@H](O[C@H]2[C@@H](O)[C@H](O[C@@H]3[C@@H](O)[C@H](NC(=N)N)C[C@H](NC(=N)N)[C@H]3O[C@H]3O[C@H](CNC(=N)N)[C@@H](O)[C@H](O)[C@H]3NC(=N)N)O[C@@H]2CO)[C@H](NC(=N)N)[C@@H](O)[C@@H]1O [guanidinoneomycin, guanidino-neomycin B]
inhibition of transport of BODIPY-Cys(Arg)9 into cells (10T1/2 cells; competition experiment, FACS): effectively inhibits | inhibition of fluorescent Arg9 binding and uptake (Wild-type CHO cells [5]): incomplete; also recorded: partially block | IC50 ([4]; biotinylated FGF-2 10 ng/ml, 1 h, 4° C.): ~20 µM

B1: hGUS: human recombinant GUS (protein, UniProt P08236 23-651, looked up)
Beta-glucuronidase: LQGGMLYPQESPSRECKELDGLWSFRADFSDNRRRGFEEQWYRRPLWESGPTVDMPVPSSFNDISQDWRLRHFVGWVWYEREVILPERWTQDLRTRVVLRIGSAHSYAIVWVNGVDTLEHEGGYLPFEADISNLVQVGPLPSRLRITIAINNTLTPTTLPPGTIQYLTDTSKYPKGYFVQNTYFDFFNYAGLQRSVLLYTTPTTYIDDITVTTSVEQDSGLVNYQISVKGSNLFKLEVRLLDAENKVVANGTGTQGQLKVPGVSLWWPYLMHERPAYLYSLEVQLTAQTSLGPVSDFYTLPVGIRTVAVTKSQFLINGKPFYFHGVNKHEDADIRGKGFDWPLLVKDFNLLRWLGANAFRTSHYPYAEEVMQMCDRYGIVVIDECPGVGLALPQFFNNVSLHHHMQVMEEVVRRDKNHPAVVMWSVANEPASHLESAGYYLKMVIAHTKSLDPSRPVTFVSNSNYAADKGAPYVDVICLNSYYSWYHDYGHLELIQLQLATQFENWYKKYQKPIIQSEYGAETIAGFHQDPPLMFTEEYQKSLLEQYHLGLDQKRRKYVVGELIWNFADFMTEQSPTRVLGNKKGIFTRQRQPKSAAFLLRERYWKIANETRYPHSVAKSQCLENSLFT
effect of heparin lyase treatment of cells on uptake (MPS VII fibroblasts [6]): insensitive | effect of M6P on uptake (MPS VII fibroblasts [6]; 5 mmol/l M6P): greatly inhibited uptake | uptake (MPS VII fibroblasts [6]; 2-hour incubation): robust | ED50, [35S]glycosaminoglycan turnover (MPS VII fibroblasts [7]): ~3 mU

B2: Aldurazyme: recombinant therapeutic α-1-iduronidase (protein, UniProt P35475 28-653, looked up)
Alpha-L-iduronidase: APHLVHVDAARALWPLRRFWRSTGFCPPLPHSQADQYVLSWDQQLNLAYVGAVPHRGIKQVRTHWLLELVTTRGSTGRGLSYNFTHLDGYLDLLRENQLLPGFELMGSASGHFTDFEDKQQVFEWKDLVSSLARRYIGRYGLAHVSKWNFETWNEPDHHDFDNVSMTMQGFLNYYDACSEGLRAASPALRLGGPGDSFHTPPRSPLSWGLLRHCHDGTNFFTGEAGVRLDYISLHRKGARSSISILEQEKVVAQQIRQLFPKFADTPIYNDEADPLVGWSLPQPWRADVTYAAMVVKVIAQHQNLLLANTTSAFPYALLSNDNAFLSYHPHPFAQRTLTARFQVNNTRPPHVQLLRKPVLTAMGLLALLDEEQLWAEVSQAGTVLDSNHTVGVLASAHRPQGPADAWRAAVLIYASDDTRAHPNRSVAVTLRLRGVPPGPGLVYVTRYLDNGLCSPDGEWRRLGRPVFPTAEQFRRMRAAEDPVAAAPRPLPAGGRLTLRPALRLPSLLLVHVCARPEKPPGQVTRLRALPLTQGQLVLVWSDEHVGSKCLWTYEIQFSQDGKAYTPVSRKPSTFNLFVFSPDTGAVSGSYRVRALDYWARPGPFSDPVPYLEVPVPRGPPSPGNP
modifications: laronidase
notes: recombinant therapeutic α-1-iduronidase
ED50, [35S]glycosaminoglycan turnover (MPS I fibroblasts): 1 U

B3: AP-α-1-iduronidase: α-1-iduronidase treated with alkaline phosphatase (protein, UniProt P35475 28-653, looked up)
Alpha-L-iduronidase: B2 Alpha-L-iduronidase
modifications: dephosphorylated by alkaline phosphatase
notes: α-1-iduronidase treated with alkaline phosphatase
ED50, [35S]glycosaminoglycan turnover (MPS I fibroblasts): 30 U

B4: GNeo-AP-α-1-iduronidase: GNeo conjugated to AP-α-1-iduronidase (conjugate, UniProt P35475 28-653, looked up)
Alpha-L-iduronidase: B2 Alpha-L-iduronidase
modifications: GNeo conjugate, dephosphorylated
notes: GNeo conjugated to AP-α-1-iduronidase
ED50, [35S]glycosaminoglycan turnover (MPS I fibroblasts): 0.2 units
